Assay results from article PMC9973354 (mBio, 2022).

Tests used:
[1] = test system: PA14 ΔfpvA ΔfpvB pHERD20T-fpvB; assay: MIC assay, ΔfpvA ΔfpvB complemented with fpvB; format: cell-based, Pseudomonas aeruginosa; details: complementation with fpvB, arabinose induction, 10:90; susceptibility greater than with fpvA
Description: (§1) The ΔfpvA ΔfpvB mutant was complemented in trans with pHERD20T-fpvA or pHERD20T-fpvB. pHERD20T is an arabinose-inducible vector with expression driven by the PBAD promoter under the control of AraC ([30]).
(§2) MIC assays were conducted as previously described ([13], [14]). Overnight cultures were grown in LB from a glycerol stock at 37°C with shaking (200 rpm). Subcultures in 10:90 (1:100 dilution) were cultured for 4 h. Cells were adjusted to an optical density at 600 nm (OD600) of 0.1/500 in 10:90. All compounds were serially diluted 2-fold in dimethyl sulfoxide (DMSO) or H2O at 75× the final concentration. Plates were sealed to prevent evaporation and incubated at 37°C overnight in a shaking incubator (200 rpm). The next day, the OD600 was determined with a plate reader (Thermo Scientific) and normalized to percent of growth of the vehicle control after subtracting the OD600 from blank media.

[2] = test system: PA14 ΔfpvA mutant; assay: MIC assay, ΔfpvA mutant; format: cell-based, Pseudomonas aeruginosa; details: ΔfpvA mutant, iron-limited medium (10:90)
Description: as §2

[3] = highest concentration tested, 10μM fluorescein-5-maleimide in PBS
Description: Supplementary file : FIG S4 (A) Microscopy images of the PA14 ΔfpvA ΔfpvB strain with pHERD20T, pHERD20T-fpvA, and pHERD20T-fpvB treated with Alexa Fluor 594. Representative images are shown. Scale, 5μm. (B) TS partly quenches fluorescence of fluorescein-5-maleimide in the absence of cells. Each compound at the highest concentration tested was added to 10μM of fluorescein-5-maleimide in PBS in triplicate. TS reduced fluorescence to about 80% of the control. (Excitation, 485nm; emission, 528nm). ***, P < 0.001 (Student’s t test). […] Results are averaged from three independent biological replicates. Download FIG S4, EPS file, 39.8 MB.
TS was omitted from these studies because it quenched fluorescence (~20%) of the dye in the absence of cells (Fig. S4B). In the absence of protein, none of the three siderophores quenched fluorescence of the dye at the highest concentrations tested. Quenching curves were then generated and used to calculate the dissociation constant (Kd).

[4] = test system: PA14 ΔfpvA ΔfpvB ΔfiuA ΔfoxA pHERD20T-fpvB Y412A; assay: Growth of quadruple mutant expressing FpvB Y412A; format: cell-based, Pseudomonas aeruginosa; details: 10:90 + 2% arabinose
Description: (§3) Site-directed mutagenesis was used to confirm the docking predictions and to define the molecular determinants for ligand uptake through FpvB (Fig. 4C). We generated 17 single amino acid substitutions in FpvB and expressed each of them in trans in the quadruple ΔfpvA ΔfpvB ΔfiuA ΔfoxA mutant. Their ability to complement growth of the mutant in the presence of ferrichrome and ferrioxamine B and to restore TS susceptibility was assessed. […] The mutant transporters were tagged with a C-terminal FLAG tag to evaluate expression levels. FLAG-tagged FpvB mutants had WT levels of expression except for Y216T and W347V, which were expressed at 140% and 25% of WT, respectively.
(§4) The ΔfpvA ΔfpvB ΔfiuA ΔfoxA mutant was complemented with WT fpvA, fpvB, fiuA, and foxA in trans as controls (Fig. 4E).
as §2, with “Plates were sealed to prevent evaporation and incubated at 37°C overnight in a shaking incubator (200 rpm).” left out

[5] = test system: PA14 ΔfpvA ΔfpvB pHERD20T-fpvA T660C; assay: MIC assay, ΔfpvA ΔfpvB expressing FpvA T660C; format: cell-based, Pseudomonas aeruginosa; details: 10:90 + 2% arabinose
Excerpt: (§5) FpvA T660C was used previously to measure pyoverdine-Fe^3+ binding affinity ([32]). However, this technique has not been applied to FpvB. A high-confidence structural model of FpvB was generated using AlphaFold2 ([33], [34]) and aligned with the structure of FpvA (PDB accession number 2O5P) to identify a residue suitable for labeling, with the assumption that FpvA and FpvB undergo similar conformational changes upon ferrisiderophore binding (see Fig. S3A through C in the supplemental material). Based on this analysis, FpvB R648 was mutated to Cys. FpvA T660C and FpvB R648C were each expressed in trans in the ΔfpvA ΔfpvB mutant. […] We could also detect expression by fluorescence microscopy with peripheral labeling consistent with expression in the outer membrane (Fig. 3B). Labeling was undetectable in empty vector and WT controls (see Fig. S4A in the supplemental material).
(§6) Supplementary file : FIG S3 Overlay of FpvA and FpvB showing residues mutated to cysteine for labeling with maleimide dyes. FpvA (PDB accession number 2O5P) was superimposed with the AlphaFold2 model of FpvB. FpvA is shown in beige and FpvB in blue. […]
(§7) MIC assays were conducted as previously described ([13], [14]). […] The next day, the OD600 was determined with a plate reader (Thermo Scientific) and normalized to percent of growth of the vehicle control after subtracting the OD600 from blank media.

[6] = test system: PA14; assay: MIC assay, WT PA14; format: cell-based, Pseudomonas aeruginosa; details: WT PA14, iron-limited medium (10:90)
Description: as §2

[7] = test system: PA14 ΔfpvA ΔfpvB ΔfiuA ΔfoxA quadruple mutant; assay: Growth phenotypes of deletion mutants, quadruple mutant; format: cell-based, Pseudomonas aeruginosa; details: 17 μg/mL TS, 10:90
Excerpt: PA14, ΔfpvA, ΔfpvB, and ΔfpvA ΔfpvB strains treated with TS (A) and DSX (B) in 10:90. Green indicates growth, and white indicates no growth. Growth is expressed as percent of control. The PA14 ΔfpvA ΔfpvB strain complemented with pHERD20T, fpvA, or fpvB treated with TS (C) and DSX (D) in 10:90. […] All experiments are averaged from three independent biological replicates. Blue indicates growth and white indicates no growth. (H) Summary of growth phenotypes of WT PA14 and combinations of single, double, triple, and quadruple deletion mutants in fpvA, fpvB, fiuA, and foxA. […] Green indicates growth, whereas no growth is indicated in white. […] Representative plates are shown.
If there were no transporters for a particular siderophore, the mutant would fail to grow due to iron restriction.

[8] = test system: PA14 ΔfpvA ΔfpvB pHERD20T-fpvA; assay: MIC assay, ΔfpvA ΔfpvB complemented with fpvA; format: cell-based, Pseudomonas aeruginosa; details: complementation with fpvA, arabinose induction, 10:90
Description: as §1, §2

[9] = test system: PA14 ΔfpvB mutant; assay: MIC assay, ΔfpvB mutant; format: cell-based, Pseudomonas aeruginosa; details: 10:90, growth reduced at 17 μg/mL
Description: as §2

[10] = test system: PA14 ΔfpvA ΔfpvB ΔfiuA ΔfoxA pHERD20T; assay: Growth of quadruple mutant with empty vector; format: cell-based, Pseudomonas aeruginosa; details: 10:90 + 2% arabinose
Description: as §3, §4
as §2, with “Plates were sealed to prevent evaporation and incubated at 37°C overnight in a shaking incubator (200 rpm).” left out

[11] = test system: PA14 ΔfpvA ΔfpvB mutant; assay: MIC assay, ΔfpvA ΔfpvB mutant; format: cell-based, Pseudomonas aeruginosa; details: ΔfpvA ΔfpvB mutant, 10:90
Description: as §2

[12] = Maximum soluble TS concentration; details: in MIC assay medium
[13] = test system: PA14 ΔfpvA ΔfpvB ΔfiuA ΔfoxA pHERD20T-fpvB Y216T; assay: Growth of quadruple mutant expressing FpvB Y216T; format: cell-based, Pseudomonas aeruginosa; details: 10:90 + 2% arabinose
Description: as §3, §4
as §2, with “Plates were sealed to prevent evaporation and incubated at 37°C overnight in a shaking incubator (200 rpm).” left out

[14] = test system: PA14 ΔfpvA ΔfpvB pHERD20T-fpvB R648C; assay: MIC assay, ΔfpvA ΔfpvB expressing FpvB R648C; format: cell-based, Pseudomonas aeruginosa; details: 10:90 + 2% arabinose
Excerpt: as §5, §6, §7

[15] = test system: PA14 ΔfpvA ΔfpvB ΔfiuA ΔfoxA pHERD20T-fpvB D219A; assay: Growth of quadruple mutant expressing FpvB D219A; format: cell-based, Pseudomonas aeruginosa; details: 10:90 + 2% arabinose
Description: as §3, §4
as §2, with “Plates were sealed to prevent evaporation and incubated at 37°C overnight in a shaking incubator (200 rpm).” left out

C=C(NC(=O)C(=C)NC(=O)c1csc(C2=N[C@@H]3c4csc(n4)[C@H]4NC(=O)c5csc(n5)[C@H]([C@](C)(O)[C@@H](C)O)NC(=O)[C@H]5CSC(=N5)/C(=C/C)NC(=O)[C@H]([C@@H](C)O)NC(=O)c5csc(n5)[C@]3(CC2)NC(=O)[C@H](C)NC(=O)C(=C)NC(=O)[C@H](C)NC(=O)[C@H]([C@@H](C)CC)N[C@@H]2C=Cc3c([C@H](C)O)cc(nc3[C@H]2O)C(=O)O[C@@H]4C)n1)C(N)=O [TS, thiostrepton]
TS susceptibility [1]: restored TS susceptibility
TS susceptibility (MIC assay) [2]: susceptible
dye fluorescence remaining [3]: about 80 % of the control
quenching of dye fluorescence in the absence of cells [3]: ~ 20%
TS susceptibility [4]: reduced TS susceptibility
increase of susceptibility to TS compared to WT FpvA [5]: 4 fold
TS susceptibility (MIC assay) [6]: susceptible
TS susceptibility [7]: resistant
TS susceptibility [8]: restored TS susceptibility
TS susceptibility (MIC assay) [9]: resistant
TS susceptibility [10]: resistant
TS susceptibility (MIC assay) [11]: resistant
maximum soluble concentration [12]: 17 µg/mL
TS susceptibility [13]: reduced TS susceptibility
TS susceptibility [14]: WT susceptibility
TS susceptibility [15]: reduced TS susceptibility
